Measurements reported in patent US5198433A, “Lactamimides as calcium antagonists” (Merrell Dow Pharmaceuticals Inc., priority 1992, dated 1993).

How the values were obtained:
[1] = target: [^3 H]d-cis-diltiazem binding to rat whole brain membranes (calcium ion-channel protein); experiment: [^3 H]d-cis-Diltiazem binding assay (displacement from rat whole brain membranes); parameters: species or system rat (male Sprague-Dawley); details: for IC50: ligand […]
Experimental: The whole brain from male Sprague-Dawley rats (200-300 g) was dissected and homogenized in cold 50 mM Tris-HCl buffer (pH 7.4) for 2 x 30 second periods by Polytron (Brinkmann, setting No. 5). The homogenate was washed 2 times (48,000 ×g for 10 minutes, 4° C.) with intermittent resuspension of the pellet in fresh buffer. The final pellet was resuspended to an original tissue concentration of 100 mg/ml in Tris-HCl buffer. […] The reaction was terminated by rapid filtration under a vacuum through 0.05% polyethylenimine-pretreated Whatman GF/B glass fiber filters. Filters were immediately washed 2 times with 4 ml of cold Tris-HCl buffer. Pretreatment of the filters with 0.05% polyethylenimine served to eliminate [^3 H]d-cis-diltiazem binding to the filter. The filters were dried and the radioactivity in the filters was extracted overnight in scintillation fluid.

[2] = target: T1, [^3 H]nitrendipine binding to rat heart membranes (calcium ion-channel protein) (Rattus norvegicus, UniProt P22002); experiment: [^3 H]Nitrendipine binding assay (enhancement of binding to rat heart membranes); parameters: species or system rat (male Sprague-Dawley); details: ligand 0.1 nM, mean ± SEM; for activity at 1 µM: 10^-6 M; for activity at 0.1 µM: 10^-7 M
T1 construct: Membranes were prepared from the hearts of male Sprague-Dawley rats; from tissue; host or cells: heart membranes of male Sprague-Dawley rats
Experimental: Membranes were prepared from the hearts of male Sprague-Dawley rats and [^3 H]nitrendipine binding was conducted as described in detail by H. R. Lee, et al., J. Pharmacol Exp. Ther. 233:611-616, (1985), as modified by F. J. Ehlert, et al., Biochem. Biophys. Rec. Common. 104:937-943, (1982). The ability of compounds tested at 10^-6 and 10^-7 M to enhance [^3 H]nitredepine binding was taken as indicative of diltiazem-like calcium antagonistic properties.
Values are the mean ± SEM of single experiments run in triplicate at
the concentrations of drugs indicated. Ligand concentration was 0.1 nM an
control specific binding was 49.6 ± 1.7 fmol/mg protein.

[3] = target: T2, K^+ -depolarized guinea pig ileum or taenia (Cavia porcellus); experiment: Antagonism of Ca^++ -induced contractions of K^+ -depolarized guinea pig taenia or ileum; assay type: cell-based; details: FIG. 6; 40 mM K^+ -depolarized guinea pig ileum
T2 construct: pieces of ileum, 2 cm in length, from male guinea pigs (200-400 g) were set up in isolated organ baths; from tissue; host or cells: strips of taenia from the caecum or pieces of ileum of male guinea pigs
Experimental: Strips of taenia from the caecum or pieces of ileum, 2 cm in length, from male guinea pigs (200-400 g) were set up in isolated organ baths in Ca^++ -free K^+ Tyrode's solution (mM NaCl 137, KCl 40, NaH2 PO4 0.4, NaHCO3 11.9, glucose 5.5) and gassed with 95% O2, 5% CO2 at 37° C. Contractions were measured with isotonic transducers with a 1 g load. Cumulative dose-response curves were obtained. Tissues were then washed and incubated with the compounds for 20-25 minutes and then Ca^++ concentration response curves re-established. […] Dose ratios were determined graphically at ED50 values from the Ca^++ dose-response curve and Schild plots were constructed to determine pA2 value using inverse regression line analysis. Alternatively, when only one concentration of an antagonist was used, pA2 values were calculated according to the method of J. M. Van Rossum, Arch. Int. Pharmacodyn Ther. 143: 299-330 (1963).

[4] = test system: [3H]nitrendipine binding in rat cerebral cortical and cardiac homogenates; details: cited from earlier work
adenylate cyclase = details: a number of tissues; cited from earlier work
[5] = test system: isolated guinea pig hearts; details: cited from earlier work
calcium currents = details: potency compared with diltiazem; cited from earlier work

T1 sequence (P22002 whole entry, other chains not shown): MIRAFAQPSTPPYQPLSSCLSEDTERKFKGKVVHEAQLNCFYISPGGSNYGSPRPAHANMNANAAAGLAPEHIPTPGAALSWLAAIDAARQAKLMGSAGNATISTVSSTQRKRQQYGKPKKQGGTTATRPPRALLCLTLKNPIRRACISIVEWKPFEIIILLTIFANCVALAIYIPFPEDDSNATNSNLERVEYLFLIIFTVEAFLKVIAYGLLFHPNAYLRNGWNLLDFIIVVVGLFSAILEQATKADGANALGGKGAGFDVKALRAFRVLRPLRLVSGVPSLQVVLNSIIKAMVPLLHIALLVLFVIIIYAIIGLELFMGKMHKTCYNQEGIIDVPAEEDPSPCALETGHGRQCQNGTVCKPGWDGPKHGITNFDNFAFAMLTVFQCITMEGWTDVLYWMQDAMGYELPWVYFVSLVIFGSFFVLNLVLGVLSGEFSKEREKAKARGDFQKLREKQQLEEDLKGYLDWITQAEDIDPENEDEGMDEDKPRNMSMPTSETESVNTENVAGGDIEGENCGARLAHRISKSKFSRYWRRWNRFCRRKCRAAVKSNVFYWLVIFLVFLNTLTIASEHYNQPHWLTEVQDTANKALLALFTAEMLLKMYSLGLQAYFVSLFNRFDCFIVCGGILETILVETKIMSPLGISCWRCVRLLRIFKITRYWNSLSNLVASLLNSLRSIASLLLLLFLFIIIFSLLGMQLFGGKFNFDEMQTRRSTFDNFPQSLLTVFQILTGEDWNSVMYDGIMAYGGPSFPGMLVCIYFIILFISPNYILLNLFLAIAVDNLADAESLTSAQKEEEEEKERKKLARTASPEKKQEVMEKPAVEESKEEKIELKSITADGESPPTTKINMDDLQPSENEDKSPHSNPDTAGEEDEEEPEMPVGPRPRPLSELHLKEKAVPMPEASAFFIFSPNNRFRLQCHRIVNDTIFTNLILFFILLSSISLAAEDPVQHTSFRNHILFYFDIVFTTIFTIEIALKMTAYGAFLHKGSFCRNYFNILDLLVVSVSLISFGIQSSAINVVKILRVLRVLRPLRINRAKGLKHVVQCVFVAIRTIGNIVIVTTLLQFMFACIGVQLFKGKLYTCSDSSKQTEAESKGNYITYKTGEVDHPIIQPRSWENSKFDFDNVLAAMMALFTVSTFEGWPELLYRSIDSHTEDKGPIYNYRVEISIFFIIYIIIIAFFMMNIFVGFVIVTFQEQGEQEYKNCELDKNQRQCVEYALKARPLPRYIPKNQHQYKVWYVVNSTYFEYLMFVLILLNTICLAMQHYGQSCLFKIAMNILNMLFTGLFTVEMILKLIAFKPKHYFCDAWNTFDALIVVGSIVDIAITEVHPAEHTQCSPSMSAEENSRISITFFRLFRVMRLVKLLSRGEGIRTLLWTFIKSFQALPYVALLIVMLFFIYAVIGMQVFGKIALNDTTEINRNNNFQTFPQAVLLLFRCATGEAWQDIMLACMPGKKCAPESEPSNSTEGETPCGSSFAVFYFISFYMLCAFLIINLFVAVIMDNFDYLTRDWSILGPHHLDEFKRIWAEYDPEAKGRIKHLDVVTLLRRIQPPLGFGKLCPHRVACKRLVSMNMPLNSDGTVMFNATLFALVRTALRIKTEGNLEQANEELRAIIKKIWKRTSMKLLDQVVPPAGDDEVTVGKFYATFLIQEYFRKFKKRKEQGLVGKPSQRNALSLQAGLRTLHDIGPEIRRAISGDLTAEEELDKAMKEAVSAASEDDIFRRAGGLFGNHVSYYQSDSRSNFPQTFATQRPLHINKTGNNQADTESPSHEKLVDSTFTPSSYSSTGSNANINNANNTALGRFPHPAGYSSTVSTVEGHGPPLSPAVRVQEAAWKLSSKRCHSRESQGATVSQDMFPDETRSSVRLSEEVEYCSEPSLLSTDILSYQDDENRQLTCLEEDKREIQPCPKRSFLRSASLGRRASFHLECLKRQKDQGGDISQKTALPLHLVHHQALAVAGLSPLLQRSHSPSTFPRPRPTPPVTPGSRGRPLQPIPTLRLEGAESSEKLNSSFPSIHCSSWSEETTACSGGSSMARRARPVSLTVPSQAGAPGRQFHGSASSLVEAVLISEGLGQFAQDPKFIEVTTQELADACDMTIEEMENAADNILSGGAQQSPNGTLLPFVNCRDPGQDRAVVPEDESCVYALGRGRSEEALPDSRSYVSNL
T1 sequence (P54290 25-945 partner limits assumed, other chains not shown): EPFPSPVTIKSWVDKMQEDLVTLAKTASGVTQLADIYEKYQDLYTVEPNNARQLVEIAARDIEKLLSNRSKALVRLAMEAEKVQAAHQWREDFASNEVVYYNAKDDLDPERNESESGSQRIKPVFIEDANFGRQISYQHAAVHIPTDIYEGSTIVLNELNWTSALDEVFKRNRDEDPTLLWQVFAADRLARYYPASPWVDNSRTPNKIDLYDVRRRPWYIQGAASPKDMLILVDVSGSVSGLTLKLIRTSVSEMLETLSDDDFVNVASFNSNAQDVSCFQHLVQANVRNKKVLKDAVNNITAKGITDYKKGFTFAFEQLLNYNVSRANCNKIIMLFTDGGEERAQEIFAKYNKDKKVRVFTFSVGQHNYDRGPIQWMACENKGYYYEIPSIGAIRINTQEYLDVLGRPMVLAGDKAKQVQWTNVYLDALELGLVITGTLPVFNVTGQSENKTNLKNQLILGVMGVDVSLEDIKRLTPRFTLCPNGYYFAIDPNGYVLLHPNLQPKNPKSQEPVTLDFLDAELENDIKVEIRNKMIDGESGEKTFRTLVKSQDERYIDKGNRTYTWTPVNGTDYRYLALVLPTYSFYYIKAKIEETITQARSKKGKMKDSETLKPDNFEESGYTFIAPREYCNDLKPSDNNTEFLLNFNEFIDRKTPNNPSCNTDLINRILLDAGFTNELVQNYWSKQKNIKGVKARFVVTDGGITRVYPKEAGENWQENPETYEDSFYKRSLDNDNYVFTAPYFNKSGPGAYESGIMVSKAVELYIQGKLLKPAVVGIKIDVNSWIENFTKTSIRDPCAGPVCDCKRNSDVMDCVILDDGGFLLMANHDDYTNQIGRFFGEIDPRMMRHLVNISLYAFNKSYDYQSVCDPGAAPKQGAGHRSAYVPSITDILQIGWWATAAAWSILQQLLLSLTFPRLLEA
T1 sequence (P54290 946-1091 partner limits assumed, other chains not shown): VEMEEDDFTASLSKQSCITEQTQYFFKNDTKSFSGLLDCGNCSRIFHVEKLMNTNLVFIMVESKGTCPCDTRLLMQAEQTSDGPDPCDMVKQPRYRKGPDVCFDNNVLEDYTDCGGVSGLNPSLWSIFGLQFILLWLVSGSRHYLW

c1ccc([C@H]2CCC[C@H]2N=C2CCCCCCCCCCCN2)cc1 (relative stereo) [Test Compound 3, 2-[(cis-2-phenylcyclopentyl)imino]azacyclotridecane]
IC50 ([1]; 25° C.): 280 ± 30 nM | IC50 ([1]; 37° C.): 403 ± 77 nM | pKi ([1]; Table 1, displacement of 3H diltiazem, rat brain membranes, 25° C., n = 3, Cheng & Prusoff): 6.41 | activity at 1 µM ([2]; 25° C.): 112 ± 2% | activity at 0.1 µM ([2]; 25° C.): 102 ± 1% | activity at 1 µM ([2]; 37° C.): 165 ± 13% | activity at 0.1 µM ([2]; 37° C.): 141 ± 8% | mean pA2 value (95% confidence interval), Schild plot [3]: 6.66 (6.31-7.44) | mean slope (±S.D.) of Schild plot [3]: 0.89 (0.16) | effect on [3H]nitrendipine binding [4]: enhanced [3H]nitrendipine binding in rat cerebral cortical and cardiac homogenates in a similar manner to diltiazem | inhibition of stimulated adenylate cyclase activity (adenylate cyclase): inhibit stimulated adenylate cyclase activity in a number of tissues | reversal of inotropic and chronotropic effects by calcium ([5]; administration of calcium): reversed by the administration of calcium | inotropic and chronotropic effects [5]: negative inotropic and chronotropic effects | effect on calcium currents (calcium currents): selectively reduced calcium currents with a potency similar to diltiazem
